Patent US6946447B2, “MDM2-specific antisense oligonucleotides” (Hybridon, Inc., priority 1997, dated 2005)
Read-outs that look alike come from different tables or passages of the source.

Columns and labels:
SJSA xenografts = experiment: Tumor growth in nude mice bearing SJSA xenografts; type: in vivo; details: SJSA xenografts (average 150 mg), ip, 5 doses/week
Protocol: 51:173-182, 1996). […] The control group received physiological saline only.
Tumor growth was monitored using the methods previously reported (74,75). Tumor weight (g) was calculated by the formula, ½·a·b^2, where “a” is the long diameter (cm) and “b” is the short diameter (cm) of the tumor. At the end of the experiment, tumors were removed, weighed, and then fixed for pathology evaluation.

[1] = tested on: MDM2, p53 and p21 protein levels in DLD-1 cells; experiment: Western blot of MDM2, p53 and p21 in DLD-1 cells; type: cell-based, human; details: for inhibitory effect on MDM2 expression: Lipofectin
Text: (§1) Chemicals and Reagents. Cell culture media and phosphate-buffered saline (PBS) were obtained from Sigma Chemical Co. (St. Louis, Mo.). Fetal bovine serum (FBS), antibodies against p53 and p21, Lipofectin, trypsin, penicillin-streptomycin, and trypan blue stain were purchased from GIBCO-BRL (Grand Island, N.Y.). The anti-human-MDM2 monoclonal antibody (Chen L. et al., Proc Natl Acad Sci USA, 95: 195-200, 1998; Chen L. et al., Mol. Med. 5: 21-34, 1999) was kindly provided by J. Chen (Moffitt Cancer Center, Tampa, Fla.). Chemotherapeutic agents adriamycin and 5-fluorouracil (5-FU) were obtained from Sigma. Natural product topoisomerase I inhibitor 10-hydroxycamptothecin (HCPT) was obtained from the Midwest Co. (Beijing, China) with the purity of the drug being greater than 98% (Zhang R. et al., Cancer Chemother Pharm 41: 257-267, 1998). Cell Culture. The tumor cell lines, LS174T and DLD-1 were obtained from the American Type Culture Collection (Rockville, Md.) and cultured according to their instructions. LS 174T cells were cultured in MEM with 0.1 mM nonessential amino acids and Earle's balanced salt solution containing 10% FBS and DLD-1 cells in RPMI 1640 medium containing 10% FBS. All media included 1% penicillin/streptomycin. […] Cells were incubated with Oligos AS or ASM at various concentrations for 72 hr, in the presence of Lipofectin (7 μg/ml). […] Western Blot Analysis. The MDM2, p53 and p21 levels in cultured cells were analyzed by using the methods described previously (earlier (Chen L. et al., Proc Natl Acad Sci USA, 95: 195-200, 1998; Chen L. et al., Mol. Med. 5: 21-34, 1999; Wang H. et al., Int J. Oncol. 15: 653-660, 1999). In brief, cell lysate containing identical amounts of total protein were fractionated by SDS-PAGE and transferred to Bio-Rad Trans-Blot nitrocellulose membranes (Bio-Rad Laboratories, Hercules, Calif., USA). The nitrocellulose membrane was then incubated with blocking buffer (PBS containing 0.1% Tween 20 and 5% non-fat milk) for 1 hr at room temperature and washed with the washing buffer (PBS containing 0. 1% Tween 20) for 5 min twice. The membrane was incubated with primary (anti-MDM2, anti-p53, or anti-p21) antibody overnight at 4° C. or for 1 hr at room temperature with gentle shaking. The membrane was washed with the washing buffer for 15 min and then twice for 5 min, and then incubated with 1:5000 diluted goat anti-mouse IgG-horse radish peroxidase conjugated antibody (Bio-Rad, Hercules, Calif.) for 1 hr at room temperature. After washing as described above the protein of interest was detected by ECL reagents from Amersham (Arlington Height, Ill.). Results. LS174T Model. In vitro inhibition of MDM2 expression by Oligo AS was shown in a sequence-specific, increasing dose-dependent manner (FIG. 19). […] Control oligonucleotide, Oligo ASM had no effect on MDM2, p53 or p21 protein levels at 500 nM, the highest concentration tested in the study.
(§2) Following in vitro combination treatment of Oligos and chemotherapeutic agents HCPT, adriamycin, and 5-FU, the protein levels of MDM2, p53 and p21 were determined in DLD-1 cells. Cells were incubated with 200 nM Oligo in the presence of Lipofectin for 24 hr, followed by addition of various concentrations of chemotherapeutic agents and incubation for an additional 24 hr.

MDM2 = details: SJSA and JAR cells; cited from earlier work
[2] = mice bearing DLD-1 xenografts
[3] = tested on: human colon cancer DLD-1 xenografts; experiment: Tumor growth in nude mice bearing DLD-1 xenografts; type: in vivo
LS174T cells = experiment: LS174T cell growth by trypan blue viability staining; type: cell-based, human; details: 72 hr, Lipofectin 7 μg/ml, read-out: IC50, inhibition of tumor cell growth
Text: (§3) Chemicals and Reagents. Cell culture media and phosphate-buffered saline (PBS) were obtained from Sigma Chemical Co. (St. Louis, Mo.). Fetal bovine serum (FBS), antibodies against p53 and p21, Lipofectin, trypsin, penicillin-streptomycin, and trypan blue stain were purchased from GIBCO-BRL (Grand Island, N.Y.). The anti-human-MDM2 monoclonal antibody (Chen L. et al., Proc Natl Acad Sci USA, 95: 195-200, 1998; Chen L. et al., Mol. Med. 5: 21-34, 1999) was kindly provided by J. Chen (Moffitt Cancer Center, Tampa, Fla.). Chemotherapeutic agents adriamycin and 5-fluorouracil (5-FU) were obtained from Sigma. […] The MDM2, p53 and p21 levels in cultured cells were analyzed by using the methods described previously (earlier (Chen L. et al., Proc Natl Acad Sci USA, 95: 195-200, 1998; Chen L. et al., Mol. Med. 5: 21-34, 1999; Wang H. et al., Int J. Oncol. 15: 653-660, 1999). In brief, cell lysate containing identical amounts of total protein were fractionated by SDS-PAGE and transferred to Bio-Rad Trans-Blot nitrocellulose membranes (Bio-Rad Laboratories, Hercules, Calif., USA). The nitrocellulose membrane was then incubated with blocking buffer (PBS containing 0.1% Tween 20 and 5% non-fat milk) for 1 hr at room temperature and washed with the washing buffer (PBS containing 0. […]

DLD-1 cells = experiment: DLD-1 cell growth by trypan blue viability staining; type: cell-based, human; details: 72-hr treatment, Lipofectin, read-out: IC50, inhibition of tumor cell growth
Text: as §3

[4] = tested on: MDM2, p53 and p21 protein levels in LS174T cells; experiment: Western blot of MDM2, p53 and p21 in LS174T cells; type: cell-based, human; details: 400 nM Oligo 24 hr
Text: as §1
as §2, with “LS174T” for “DLD-1”, “400” for “200”, “for” for “for an”

[5] = mice bearing LS174T xenografts

## Oligo AS: 20-mer mixed-backbone phosphorothioate oligonucleotide with 2′-O-methyl ends, 5′UGACACCTGTTCTCACUCAC-3′; SEQ ID NO:47 (mixed phosphorothioate backbone with 2'-O-methyl ends, pattern not given here)
SJSA xenografts
  effect on tumor growth: dose-dependent effect
[1]
  protein levels of the mutant p53: No significant changes
[1]; 200 nM Oligo 24 hr, then 5-FU 24 hr
  MDM2, p53 and p21 protein levels, oligo pre-treatment then 5-FU: MDM2 expression was inhibited, and p21 slightly induced
[1]; 200 nM Oligo 24 hr, then HCPT 24 hr
  MDM2 and p21 protein levels, oligo pre-treatment then HCPT: MDM2 expression was inhibited, resulting in significant elevated p21 levels
[1]; 200 nM Oligo 24 hr, then adriamycin 24 hr
  MDM2 and p21 protein levels, oligo pre-treatment then adriamycin: MDM2 expression was inhibited, resulting in significant elevated p21 levels
[1]; 200 nM, 24 hr
  inhibitory effect on MDM2 expression: > 95%
[1]; 100 nm or higher
  p21 levels: elevated
[1]; 500 and 1000 nM
  inhibitory effect on MDM2 expression: approximately 80%
MDM2
  MDM2 expression: specifically inhibits MDM2 expression
[2]; day 3
  Survival Rates of Animals: 100%
[2]; day 6
  Survival Rates of Animals: 100%
[2]; day 9
  Survival Rates of Animals: 100%
[2]; day 12
  Survival Rates of Animals: 100%
[2]; day 15
  Survival Rates of Animals: 100%
[2]; day 18
  Survival Rates of Animals: 100%
[2]; day 21
  Survival Rates of Animals: 100%
[3]
  xenograft pathology (tumor histology): histologically similar to control tumors except for modest increases in connective tissue with necrotic changes in tumor tissues
[3]; 1 mg/kg/day
  effect on in vivo tumor growth: minimal effects
[3]; daily ip doses 1, 10, 20 mg/kg
  effect on in vivo tumor growth: dose-dependent response
[3]; day 3
  Ratio (%) of % T:C with oligo to % T:C without oligo ([2]/[1] or [3]/[1]): 77%
[3]; day 3, oligo 20, HCPT 3, 5-FU 10 mg/kg/day
  Growth ratio % T:C: 77.3%
[3]; day 6
  Ratio (%) of % T:C with oligo to % T:C without oligo ([2]/[1] or [3]/[1]): 72%
[3]; day 6, oligo 20, HCPT 3, 5-FU 10 mg/kg/day
  Growth ratio % T:C: 72.0%
[3]; day 9
  Ratio (%) of % T:C with oligo to % T:C without oligo ([2]/[1] or [3]/[1]): 59%
[3]; day 9, oligo 20, HCPT 3, 5-FU 10 mg/kg/day
  Growth ratio % T:C: 59.2%
[3]; day 12
  Ratio (%) of % T:C with oligo to % T:C without oligo ([2]/[1] or [3]/[1]): 41%
[3]; day 12, oligo 20, HCPT 3, 5-FU 10 mg/kg/day
  Growth ratio % T:C: 41.2%
[3]; day 15
  Ratio (%) of % T:C with oligo to % T:C without oligo ([2]/[1] or [3]/[1]): 44%
[3]; day 15, oligo 20, HCPT 3, 5-FU 10 mg/kg/day
  Growth ratio % T:C: 44.4%
[3]; day 18
  Ratio (%) of % T:C with oligo to % T:C without oligo ([2]/[1] or [3]/[1]): 47%
[3]; day 18, oligo 20, HCPT 3, 5-FU 10 mg/kg/day
  Growth ratio % T:C: 46.7%
[3]; day 21
  Ratio (%) of % T:C with oligo to % T:C without oligo ([2]/[1] or [3]/[1]): 37%
[3]; day 21 (end of experiment), oligo 20, HCPT 3, 5-FU 10 mg/kg/day
  Growth ratio % T:C: 36.8%
LS174T cells
  IC50: 0.323 µM
DLD-1 cells
  IC50: 0.14 µM
[4]; then 5-FU 24 hr
  MDM2, p53 and p21 protein levels, oligo pre-treatment then 5-FU: MDM2 expression was inhibited, resulting in significant elevated p53 and p21 levels
[4]; then HCPT 24 hr
  MDM2, p53 and p21 protein levels, oligo pre-treatment then HCPT: MDM2 expression was inhibited, resulting in significant elevated p53 and p21 levels
[4]; then adriamycin 24 hr
  MDM2, p53 and p21 protein levels, oligo pre-treatment then adriamycin: MDM2 expression was inhibited, resulting in significant elevated p53 and p21 levels
[5]; day 3
  Survival Rates of Animals: 100%
[5]; day 6
  Survival Rates of Animals: 100%
[5]; day 9
  Survival Rates of Animals: 100%
[5]; day 12
  Survival Rates of Animals: 100%
[5]; day 15
  Survival Rates of Animals: 100%
[5]; day 18
  Survival Rates of Animals: 100%
